Assay results published in EPA's ToxValDB 9.5 (doi:10.2903/j.efsa.2010.1868).
Values after ≈ are worked out from the molar mass of the structure shown.

What was measured:
[1] = system: Rattus norvegicus
[2] = system: Typhlodromus pyri; experiment: LR50; higher = less toxic; conditions: chronic/long-term; duration: 7 days; mortality
[3] = system: Apis mellifera; conditions: acute; duration: 48 hours; oral; unspecified; mortality
[4] = system: Bibionidae; conditions: chronic/long-term; duration: 26 days; development
[5] = system: Pimephales promelas; conditions: chronic/long-term; duration: 33 days; other
[6] = system: Canidae; conditions: oral, Dog Other, body weight
[7] = system: Lepomis macrochirus; conditions: acute; duration: 96 hours; mortality
[8] = system: Tagia sp.
[9] = system: Colinus virginianus; conditions: reproduction developmental
[10] = system: Perdix sp.; conditions: acute; oral; unspecified; mortality
[11] = system: Anas platyrhynchos; conditions: short-term; oral; feed; mortality
[12] = system: Daphnia magna; conditions: chronic/long-term; duration: 21 days; other
[13] = system: Mus musculus; conditions: acute; oral; mortality

For NC(Cc1ncn[nH]1)C(=O)O (configuration not stated) [1,2,4-Triazole-3-alanine], the NOAEL ([1]; subchronic, duration: 90 days) was 90 mg/kg-day.
With OC(Cn1cncn1)(c1ccc(F)cc1)c1ccccc1F (configuration not stated) [Flutriafol] the LR50 [2] was 204 g/ha, the LD50 [3] was > 2 µg/piece and the NOEC [4] was 1.6 mg/L. It also gave an NOEC [5] of 4.8 mg/L, an NOAEL ([6]; chronic, duration: 1 years) of 5 mg/kg-day and an NOAEL ([6]; subchronic, duration: 90 days) of 5 mg/kg-day. For the same compound, the LC50 [7] was 33 µg/mL (≈ 110 µM), the NOAEL ([1]; chronic, duration: 2 years, organ weight) was 1 mg/kg-day and the NOAEL ([1]; reproduction developmental, reproduction) was 13.5 mg/kg-day. The LC50 ([8]; acute, duration: 14 days, mortality) was > 1000 mg/kg, the NOEC ([8]; chronic/long-term, duration: 56 days) was 12.2 mg/kg and the NOEC [9] was 35.8 mg/kg-day. The LD50 [10] was 616 mg/kg, the LC50 [11] was 435 mg/kg-day and the NOEC [12] was 0.31 mg/L. It also gave an LD50 [13] of 179 mg/kg.
